Among the data in ChEMBL document CHEMBL1269004, “Synthesis of a 6-methyl-7-deaza analogue of adenosine that potently inhibits replication of polio and dengue viruses” (J Med Chem, 2010) are PFU values, retold here.

Common to all, as to assay type: functional, HeLa S3
Assay [1] deals with Enterovirus C.
Assay [2] concerns Enterovirus C. The source holds these as a separate data set.
In assay [3] the test system is Enterovirus C. The source holds these as a separate data set.
In assay [4] the test system is Enterovirus C. The source holds these as a separate data set.
Assay [5] relates to Enterovirus C. This is another data set of the same source.
Assay [6] deals with Enterovirus C. The source holds these as a separate data set.

Consider `Cc1ncnc2c1ncn2[C@@H]1O[C@H](CO)[C@@H](O)[C@H]1O`, for which the PFU in assay [1] was found to be 22; in assay [2], 12.

As for `Cc1ncnc2c1ccn2[C@@H]1O[C@H](CO)[C@@H](O)[C@H]1O`, the PFU is recorded as 19 in assay [3] and 17 in assay [4].

As to `NC(=O)c1ncn([C@@H]2O[C@H](CO)[C@@H](O)[C@H]2O)n1` [RIBAVIRIN], the PFU is listed as 150 in assay [5] and over 250 in assay [6].
